# Results reported in patent publication US5488068A, “Aminobiphenyl-4-ol anti-atherosclerotic compounds and method” (Bristol-Myers Squibb Company, priority 1994, dated 1996).
# Key:
# human LDL [1] = assay: Primary in vitro screen: inhibition of initial rate of Cu++-dependent LDL lipid oxidation, compound directly added to LDL; format: biochemical; conditions: CuSO4 10 μM, 37°, 90 min
# Description: (§1) The initial and later stages of LDL oxidation can be distinguished kinetically in vitro by measuring the formation of lipid conjugated diene oxidation products (ref. 10). By analogy to the behavior of antioxidants in simple single-phase systems (ref. 11), in vitro test systems were established to quantitate the protective effects of pure chemical compounds on Cu^++ -dependent LDL oxidation initial rate and lag phase. Both in vitro and ex vivo methods were employed to incorporate compounds into LDL. The magnitude of the decrease in the initial rate of conjugated diene formation was used as an estimate of the intrinsic LDL antioxidant potency of the test compound. The magnitude of the increase in lag time for the propagation phase of the oxidation chain reaction was used as an estimate of the effective concentration within LDL of the test compound. By this approach, quantitative estimation of the LDL antioxidant activity of compounds was used to identify chain-terminating antioxidants appropriate for testing in an in vivo atherosclerosis animal model.
# This procedure determined the ability of test compounds added directly to LDL to inhibit the initial rate of LDL lipid oxidation monitored by conjugated diene content. The initial rate of conjugated diene formation was approximately linear with respect to time for approximately 2 hours under the conditions employed, prior to the end of the lag phase characterized by rapid propagation of the radical chain reaction and a corresponding large increase in conjugated diene content of the LDL sample. In the assay, aliquots of compounds dissolved in DMSO (and DMSO vehicle controls) were directly added to isolated human LDL (600 μg protein/mL) in Buffer 1 (10 mM HEPES, 150 mM NaCl, pH 7.2), and incubated at 37° for 60 min. Duplicate samples were then subjected to controlled oxidation by addition of CuSO4 (10 μM) and incubation at 37° for 0 or 90 min. The reaction was quenched by diluting with 5 volumes of buffer 1 plus EDTA (20 μM final) at 0° -4°. The conjugated diene levels in the LDL samples, a quantitative indicator of lipid peroxidation rate and extent, was determined spectrophotometrically by absorbance at 234 nm for each sample at 0 min and at 90 min time points of the CuSO4 incubation. […] Results are given in Table 1; a decrease vs. control reflects an active antioxidant.
# human LDL [2] = assay: Secondary in vitro screen: LDL oxidation initial rate and lag time after in vitro plasma incorporation of compound into LDL; format: biochemical; conditions: 25 μM in plasma incorporation; CuSO4 2.5 μM, 20°
# Description: as §1
# (§2) A plasma incorporation technique was used in this procedure to test for the partitioning of a compound into LDL and its retention during LDL isolation by ultracentrifugation and dialysis. The antioxidant activity remaining in LDL was then assayed by measuring the initial rate of Cu^++ -dependent conjugated diene formation, and the lag time before extensive formation of conjugated diene oxidation products. Incorporation of test compounds into LDL in vitro was achieved by addition of an aliquot of compound (final concentration 25 μM) in DMSO to aliquots of pooled human plasma previously dialyzed overnight in buffer 1 (10 mM HEPES, 150 mM NaCl, pH 7.2) and adjusted to d=1.019 with solid KBr, and incubating for 60 min at 37°. LDL was then isolated from plasma as the ([…] to d=1.063 g/ml) fraction by standard sequential flotation techniques using KBr solution discontinuous density gradients in an ultracentrifuge by a method adapted from the original procedure of Havel (J. Clin. Invest. 34:1345). The isolated LDL was dialyzed for 1 hour into buffer 1, and aliquots were added to cuvettes at 100 μg protein/ml in buffer 1. Oxidation reactions were initiated with CuSO4 (2.5 μM) at 20°. The LDL initial oxidation rate and lag time were measured by continuous monitoring of absorbance at 234 nm in a Beckman DU-7500 spectrophotometer. The initial oxidation rate was calculated as the slope of the linear regression curve of A234 vs. time over the first ~60 min. Percent of control was calculated for test compound vs. DMSO vehicle controls. Lag time was calculated as the time corresponding to the maximum value of the first derivative of the A234 vs. time curve. The value of the lag time from the A234 vs. time curve for test compounds compared to vehicle control was expressed as percent of control. Results are given in Table 2; a decrease vs. control in the initial rate, and an increase vs. control in the lag time, reflect an active antioxidant.
# LDL [3] = assay: Ex vivo LDL oxidation susceptibility assay in hamsters after 2 weeks oral administration; conditions: hamster; for ex vivo LDL oxidation initial rate / ex vivo LDL oxidation lag time: oral in diet, mean of 4 to 6 hamsters
# Description: as §1, §2
# Compounds were administered orally to hamsters for 2 weeks using the same diet described for the atherosclerosis studies (part D.) At 2 weeks, hamsters were fasted overnight, blood was collected, and LDL was isolated as described above (part B). The same assay methods described above (part B.) were then used to obtain ex vivo LDL oxidation initial rate and lag time values. Results are given in Table 3; a decrease vs. control in the initial rate, and an increase in the lag time, reflect an active antioxidant.
# [4] = tested on: aortic foam cell atherosclerosis lesion; assay: In vivo atherosclerosis model in hamsters: aortic foam cell lesion size after 10 weeks; conditions: hamster; for aortic lesion size: oral in diet, mean ± SEM, n=12
# Protocol: Atherosclerosis in hamsters is confined initially to a lesion prone area along the inner curvature of the aortic arch. Early atherogenesis in this region is characterized by the infiltration of monocytes which become lipid-filled macrophage foam cells, which can develop into complex fibrous atheromas. Antioxidants selected from primary and secondary in vitro screens and ex vivo assays were tested for their ability to inhibit macrophage foam cell lesion formation in hamsters in 10 weeks studies. Lesion size was assayed by video microscopy/image analysis of histological specimens of the aortic arch stained with the lipophilic dye, oil red O. Hamsters were maintained on a diet deficient in vitamins E, C, and K/menadione, selenium, and carotenoids, and supplemented with vitamin E-stripped corn oil (10%) and cholesterol (0.4%). This diet amplified oxidant stress while only moderately elevating plasma cholesterol and LDL levels. Test compounds were administered in this diet fed ad libitum for 10 weeks. The dosages are given as mg/kg/day based on food consumption measurements and weight of the animals at the end of the 10 week dosing period. […] Results are given in Table 4; a decrease in lesion size relative to control indicates an effective anti-atherosclerotic agent.
# aortic lesions = conditions: cited from earlier work
# LDL [5] = conditions: rabbit, in vivo; cited from earlier work
# arterial lesion = conditions: animal models of atherosclerosis, high doses; cited from earlier work
# LDL [6] = conditions: animal models of atherosclerosis, high doses; cited from earlier work
Compound,LDL oxidation initial rate (human LDL [1]; 1.0 μM),LDL oxidation initial rate (human LDL [2]),LDL oxidation lag time (human LDL [2]),ex vivo LDL oxidation initial rate (LDL [3]; 60 mg/kg/day),ex vivo LDL oxidation lag time (LDL [3]; 60 mg/kg/day),aortic lesions in rabbits (aortic lesions),protection of LDL from oxidation (LDL [5]),other results
"COc1ccc(O)c(C(C)(C)C)c1 [BHA, butylated hydroxyanisole]",16 % of control,11.0 % of control,239 % of control,77 % of control,116 % of control,,,
"CN(C)c1cc(-c2ccccc2)ccc1O [Example 1, 3-(Dimethylamino)[1,1'-biphenyl]-4-ol]",42.2 % of control,17.9 % of control,237 % of control,17 % of control,482 % of control,,,LDL oxidation initial rate (human LDL [1]; 0.30 μM): 66.2 % of control; LDL oxidation initial rate (human LDL [1]; 3.0 μM): 34.0 % of control; LDL oxidation initial rate (human LDL [1]; 10 μM): 1.7 % of control; ex vivo LDL antioxidant activity relative to probucol and BHA (LDL [3]; oral): markedly more active in this model than the reference agents probucol and BHA; anti-atherosclerotic effectiveness relative to probucol ([4]; oral): markedly more effective than the reference agent probucol; aortic lesion size ([4]; 3 mg/kg/day): 71.7 ± 13.7 % of control; aortic lesion size ([4]; 60 mg/kg/day): 46.2 ± 6.2 % of control
"c1ccc(Nc2ccc(Nc3ccccc3)cc2)cc1 [N,N'-diphenylphenylenediamine (DPPD), N,N'-diphenylphenylenediamine]",,,,,,decrease aortic lesions in rabbits,protect LDL from oxidation,
"Cc1cc(C(C)(C)C)c(O)c(C(C)(C)C)c1 [butylated hydroxytoluene (BHT), butylated hydroxytoluene]",,,,,,decrease aortic lesions in rabbits,protect LDL from oxidation,
CC(C)(Sc1cc(C(C)(C)C)c(O)c(C(C)(C)C)c1)Sc1cc(C(C)(C)C)c(O)c(C(C)(C)C)c1 [probucol],79 % of control,17.6 % of control,293 % of control,,,,,ex vivo LDL oxidation initial rate (LDL [3]; 120 mg/kg/day): 70 % of control; ex vivo LDL oxidation lag time (LDL [3]; 120 mg/kg/day): 141 % of control; aortic lesion size ([4]; 120 mg/kg/day): 59.4 ± 6.4 % of control; arterial lesion size (arterial lesion): decreased arterial lesion size; oxidation of LDL in vivo (LDL [6]): decrease oxidation of LDL in vivo
